Experimental data as given in patent publication US20130217702A1 (Richter Gedeon Nyrt., priority 2010, published 2013).
pIC50, pKi: −log10 of the molar value. Like-named read-outs stand apart in the source and are kept apart here.

Assays:
[1] = biological target: T1, recombinant human B1 receptors (Homo sapiens, UniProt P46663); assay: Functional assay: antagonist potency by cytosolic calcium measurement (plate reader fluorimeter) in CHO-B1 cells, agonist LysDABK; type: cell-based
T1 construct: host or cells: CHO (CHO-B1)
T1 sequence (P46663 1-353): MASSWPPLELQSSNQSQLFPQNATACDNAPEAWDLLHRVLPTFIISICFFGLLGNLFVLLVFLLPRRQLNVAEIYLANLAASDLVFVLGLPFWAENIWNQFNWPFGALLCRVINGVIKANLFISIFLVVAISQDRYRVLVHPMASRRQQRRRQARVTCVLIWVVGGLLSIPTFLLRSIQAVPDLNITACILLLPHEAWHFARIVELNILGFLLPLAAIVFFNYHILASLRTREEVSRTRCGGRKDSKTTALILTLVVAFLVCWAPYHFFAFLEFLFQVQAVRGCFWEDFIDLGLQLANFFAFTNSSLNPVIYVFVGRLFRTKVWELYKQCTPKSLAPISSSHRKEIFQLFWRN
Procedure, shortened: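 IC50 is the concentration giving half-maximal inhibition of the LysDABK (EC80) calcium response, fitted from at least three experiments. CHO cells stably expressing human B1 were dye-loaded, exposed to compound for 20-25 min, then read by fluo-4 fluorescence (ΔF/F) at 37 °C.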

[2] = biological target: T2, human recombinant bradykinin B1 receptor (Homo sapiens, UniProt P46663); assay: Human recombinant bradykinin B1 receptor competitive radioligand binding
T2 construct: host or cells: CHO cells, clone hB1-A5
T2 sequence (P46663 1-353): T1 sequence (P46663 1-353)
Procedure, shortened: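 Membranes from CHO cells expressing hB1 (20 μg protein/tube) incubated 15 min at 25° C. with [3,4-prolyl-3,4-^3H(N)]-[Des-Arg^10] Kallidin; nonspecific binding defined with 10 μM Lys-des-Arg^9-Bradykinin. Bound label collected by filtration and counted. IC50 from ≥7-point curves in triplicate; Ki by Cheng-Prusoff.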

[3] = CHO-B1 cells, inhibition of LysDABK (EC80)-evoked [Ca2+]i elevation, read-out: B1 func.
[4] = hB1 expressed in CHO cells, [3H]-[Des-Arg10] Kallidin radioligand, read-out: B1 binding

## Cc1cc(C(=O)NC2(C(=O)NCc3ccc(-n4c(-c5noc(C)n5)c(Cl)c5ccccc54)cc3)CC2)no1 [Example 135, 5-Methyl-isoxazole-3-carboxylic acid (1-{4-[3-chloro-2-(5-methyl-[1,2,4]oxadiazol-3-yl)-indol-1-yl]-benzylcarbamoyl}-cyclopropyl)-amide]
[1]; [3]
  pIC50: 7.00 to 7.70
[2]; [4]
  pKi: > 7.70

## Cc1nc(-c2c(Cl)c3cc(Cl)ccc3n2-c2ccc(CNC(=O)C3(NC(=O)c4cncc(C(F)(F)F)c4)CC3)cc2)no1 [Example 76, N-(1-{4-[3,5-Dichloro-2-(5-methyl-[1,2,4]oxadiazol-3-yl)-indol-1-yl]-benzylcarbamoyl}-cyclopropyl)-5-trifluoromethyl-nicotinamide]
[1]; [3]
  pIC50: > 7.70
[2]; [4]
  pKi: > 7.70

## Cc1nc(-c2c(Cl)c3cc(F)ccc3n2-c2ccc(CNC(=O)C3(NC(=O)c4ccnc(F)c4)CC3)cc2)no1 [Example 89, N-(1-{4-[3-Chloro-5-fluoro-2-(5-methyl-[1,2,4]oxadiazol-3-yl)-indol-1-yl]-benzylcarbamoyl}-cyclopropyl)-2-fluoro-isonicotinamide]
[1]; [3]
  pIC50: > 7.70
[2]; [4]
  pKi: > 7.70

## COc1ccc2c(c1)cc(C#N)n2-c1ccc(CNC(=O)C2(NC(=O)c3cncc(C(F)(F)F)c3)CC2)cc1 [Example 44, N-{1-[4-(2-Cyano-5-methoxy-indol-1-yl)-benzylcarbamoyl]-cyclopropyl}-5-trifluoromethyl-nicotinamide]
[1]; [3]
  pIC50: > 7.70
[2]; [4]
  pKi: > 7.70

## Cc1cc(C(=O)NC2(C(=O)NCc3ccc(-n4c(-c5noc(C)n5)c(Cl)c5cc(F)ccc54)cc3)CC2)no1 [Example 88, 5-Methyl-isoxazole-3-carboxylic acid (1-{4-[3-chloro-5-fluoro-2-(5-methyl-[1,2,4]oxadiazol-3-yl)-indol-1-yl]-benzylcarbamoyl}-cyclopropyl)-amide]
[1]; [3]
  pIC50: > 7.70
[2]; [4]
  pKi: > 7.70

## Cc1nc(-c2c(Cl)c3ccccc3n2-c2ccc(CNC(=O)C3(NC(=O)c4ccncc4F)CC3)cc2)no1 [Example 97, N-(1-{4-[3-Chloro-2-(5-methyl-[1,2,4]oxadiazol-3-yl)-indol-1-yl]-benzylcarbamoyl}-cyclopropyl)-3-fluoro-isonicotinamide]
[1]; [3]
  pIC50: 7.00 to 7.70
[2]; [4]
  pKi: > 7.70

## Cc1nc(-c2c(Cl)c3cc(F)ccc3n2-c2ccc(CNC(=O)C3(NC(=O)c4cccnc4F)CC3)cc2)no1 [Example 117, N-(1-{4-[3-Chloro-5-fluoro-2-(5-methyl-[1,2,4]oxadiazol-3-yl)-indol-1-yl]-benzylcarbamoyl}-cyclopropyl)-2-fluoro-nicotinamide]
[1]; [3]
  pIC50: > 7.70
[2]; [4]
  pKi: > 7.70

## N#Cc1cc2cc(F)ccc2n1-c1ccc(CNC(=O)C2(NC(=O)c3cncc(C(F)(F)F)c3)CC2)cc1 [Example 45, N-{1-[4-(2-Cyano-5-fluoro-indol-1-yl)-benzylcarbamoyl]-cyclopropyl}-5-trifluoromethyl-nicotinamide]
[1]; [3]
  pIC50: > 7.70
[2]; [4]
  pKi: > 7.70

## COc1cc(C(=O)NC2(C(=O)NCc3ccc(-n4c(-c5nc(C)no5)c(Cl)c5ccccc54)cc3)CC2)on1 [Example 193, 3-Methoxy-isoxazole-5-carboxylic acid (1-{4-[3-chloro-2-(3-methyl-[1,2,4]oxadiazol-5-yl)-indol-1-yl]-benzylcarbamoyl}-cyclopropyl)-amide]
[1]; [3]
  pIC50: > 7.70
[2]; [4]
  pKi: > 7.70

## Cc1nc(-c2c(Cl)c3cc(Cl)ccc3n2-c2ccc(CNC(=O)C3(NC(=O)c4cccc(F)c4)CC3)cc2)no1 [Example 71, N-(1-{4-[3,5-Dichloro-2-(5-methyl-[1,2,4]oxadiazol-3-yl)-indol-1-yl]-benzylcarbamoyl}-cyclopropyl)-3-fluoro-benzamide]
[1]; [3]
  pIC50: > 7.70
[2]; [4]
  pKi: > 7.70

## Cc1noc(-c2c(Cl)c3ccccc3n2-c2ccc(CNC(=O)C3(NC(=O)c4cncc(C(F)(F)F)c4)CC3)cc2)n1 [Example 115, N-(1-{4-[3-Chloro-2-(3-methyl-[1,2,4]oxadiazol-5-yl)-indol-1-yl]-benzylcarbamoyl}-cyclopropyl)-5-trifluoromethyl-nicotinamide]
[1]; [3]
  pIC50: > 7.70
[2]; [4]
  pKi: > 7.70

## CN1CCN(C(=O)C2CCN(S(=O)(=O)c3ccc(NCC(c4ccccc4)c4ccccc4)c(C(=O)N4CCOCC4)c3)CC2)CC1 [NVP-SAA164, 4-{2-[(2,2-diphenyl-ethyl)-amino]-5-{4-[4-[(4-methyl-1-piperazinyl)-carbonyl]-1-piperidinyl]-sulfonyl}-benzoyl}-morpholine, reference compound]
[1]; reference compounds, functional test, measured by the applicant, read-out: IC50
  pIC50: 7.48
[2]; reference compounds, binding test, measured by the applicant, read-out: Ki
  pKi: 8.10

## CNC(=O)c1c(Cl)c2ccccc2n1-c1ccc(C(C)NC(=O)C2(NC(=O)C(F)(F)F)CC2)cc1 (centres unmarked) [Example 32, 3-Chloro-1-[4-(1-{[1-(2,2,2-trifluoro-acetylamino)-cyclopropanecarbonyl]-amino}-ethyl)-phenyl]-1H-indole-2-carboxylic acid methylamide]
[1]; [3]
  pIC50: > 7.70
[2]; [4]
  pKi: > 7.70

## COc1cc(C(=O)NC2(C(=O)NCc3ccc(-n4c(-c5nnc(C)o5)c(Cl)c5ccccc54)cc3)CC2)on1 [Example 5, 3-Methoxy-N-[1-({4-[3-chloro-2-(5-methyl-1,3,4-oxadiazol-2-yl)-1H-indol-1-yl]benzyl}carbamoyl)cyclopropyl]isoxazole-5-carboxamide]
[1]; [3]
  pIC50: > 7.70
[2]; [4]
  pKi: > 7.70

## Cc1cnc(C(=O)NC2(C(=O)NCc3ccc(-n4c(-c5noc(C)n5)c(Cl)c5ccccc54)cc3F)CC2)cn1 [Example 106, 5-Methyl-pyrazine-2-carboxylic acid (1-{4-[3-chloro-2-(5-methyl-[1,2,4]oxadiazol-3-yl)-indol-1-yl]-2-fluoro-benzylcarbamoyl}-cyclopropyl)-amide]
[1]; [3]
  pIC50: > 7.70
[2]; [4]
  pKi: > 7.70

## COc1cc(C(=O)NC2(C(=O)NCc3ccc(-n4c(-c5nc(C)no5)cc5cc(F)ccc54)cc3)CC2)on1 [Example 103, 3-Methoxy-isoxazole-5-carboxylic acid (1-{4-[5-fluoro-2-(3-methyl-[1,2,4]oxadiazol-5-yl)-indol-1-yl]-benzylcarbamoyl}-cyclopropyl)-amide]
[1]; [3]
  pIC50: > 7.70
[2]; [4]
  pKi: > 7.70

## Cc1nc(-c2c(Cl)c3ccccc3n2-c2ccc(CNC(=O)C3(NC(=O)c4ccco4)CC3)cc2)no1 [Example 145, Furan-2-carboxylic acid (1-{4-[3-chloro-2-(5-methyl-[1,2,4]oxadiazol-3-yl)-indol-1-yl]-benzylcarbamoyl}-cyclopropyl)-amide]
[1]; [3]
  pIC50: 7.00 to 7.70
[2]; [4]
  pKi: 7.00 to 7.70

## COc1cc(C(=O)NC2(C(=O)NCc3ccc(-n4c(-c5nnn(C)n5)c(Cl)c5cc(Cl)ccc54)cc3)CC2)on1 [Example 18, 3-Methoxy-isoxazole-5-carboxylic acid (1-{4-[3,5-dichloro-2-(2-methyl-2H-tetrazol-5-yl)-indol-1-yl]-benzylcarbamoyl}-cyclopropyl)-amide]
[1]; [3]
  pIC50: > 7.70
[2]; [4]
  pKi: > 7.70

## COc1cc(C(=O)NC2(C(=O)NCc3ccc(-n4c(C#N)cc5cc(F)ccc54)cc3)CC2)on1 [Example 49, 3-Methoxy-isoxazole-5-carboxylic acid {1-[4-(2-cyano-5-fluoro-indol-1-yl)-benzylcarbamoyl]-cyclopropyl}-amide]
[1]; [3]
  pIC50: > 7.70
[2]; [4]
  pKi: > 7.70
